≈ marks a conversion by molar mass, not a printed value.
Assays:
Assay type in all cases: functional
[1] = test system: Streptococcus; test: Antimicrobial activity against Beta-hemolytic Streptococcus assessed as percent resistant isolates by broth microdilution method
[2] = test system: Streptococcus; test: Antimicrobial activity against viridans group Streptococcus assessed as percent resistant isolates by broth microdilution method
[3] = test system: Staphylococcus aureus; test: Antimicrobial activity against Oxacillin-susceptible Staphylococcus aureus assessed as percent resistant isolates by broth microdilution method
[4] = test system: Staphylococcus aureus; test: Antimicrobial activity against Oxacillin-resistant Staphylococcus aureus assessed as percent resistant isolate by broth microdilution method
[5] = test system: Staphylococcus aureus; test: Antimicrobial activity against Oxacillin-susceptible Staphylococcus aureus by broth microdilution method
[6] = test system: Staphylococcus aureus; test: Antimicrobial activity against Oxacillin-resistant Staphylococcus aureus by broth microdilution method
[7] = test system: Staphylococcus; test: Antimicrobial activity against Oxacillin-susceptible coagulase-negative Staphylococcus by broth microdilution method
[8] = test system: Staphylococcus; test: Antimicrobial activity against Oxacillin-resistant coagulase-negative Staphylococcus by broth microdilution method
[9] = test system: Streptococcus; test: Antimicrobial activity against Beta-hemolytic Streptococcus by broth microdilution method
[10] = test system: Streptococcus; test: Antimicrobial activity against viridans group Streptococcus by broth microdilution method
[11] = test system: Staphylococcus aureus; test: Antimicrobial activity against Oxacillin-susceptible Staphylococcus aureus assessed as percent susceptible isolate by broth microdilution method
[12] = test system: Staphylococcus aureus; test: Antimicrobial activity against Oxacillin-resistant Staphylococcus aureus assessed as percent susceptible isolate by broth microdilution method
[13] = test system: Staphylococcus; test: Antimicrobial activity against Oxacillin-susceptible coagulase-negative Staphylococcus assessed as percent susceptible isolate by broth microdilution method
[14] = test system: Staphylococcus; test: Antimicrobial activity against Oxacillin-resistant coagulase-negative Staphylococcus assessed as percent susceptible isolate by broth microdilution method
[15] = test system: Streptococcus; test: Antimicrobial activity against Beta-hemolytic Streptococcus assessed as percent susceptible isolate by broth microdilution method
[16] = test system: Streptococcus; test: Antimicrobial activity against viridans group Streptococcus assessed as percent susceptible isolate by broth microdilution method
[17] = test system: Staphylococcus; test: Antimicrobial activity against Oxacillin-susceptible coagulase-negative Staphylococcus assessed as percent resistant isolate by broth microdilution method
[18] = test system: Staphylococcus; test: Antimicrobial activity against Oxacillin-resistant coagulase-negative Staphylococcus assessed as percent resistant isolate by broth microdilution method
[19] = test system: Enterococcus faecalis; test: Antimicrobial activity against Vancomycin-nonsusceptible Enterococcus faecalis assessed as percent resistant isolates by broth microdilution method
[20] = test system: Enterococcus faecium; test: Antimicrobial activity against Vancomycin-susceptible Enterococcus faecium assessed as percent resistant isolates by broth microdilution method
[21] = test system: Enterococcus faecalis; test: Antimicrobial activity against Vancomycin-susceptible Enterococcus faecalis by broth microdilution method
[22] = test system: Enterococcus faecalis; test: Antimicrobial activity against Vancomycin-nonsusceptible Enterococcus faecalis by broth microdilution method
[23] = test system: Enterococcus faecium; test: Antimicrobial activity against Vancomycin-susceptible Enterococcus faecium by broth microdilution method
[24] = test system: Enterococcus faecium; test: Antimicrobial activity against Vancomycin-nonsusceptible Enterococcus faecium by broth microdilution method
[25] = test system: Enterococcus faecalis; test: Antimicrobial activity against Vancomycin-susceptible Enterococcus faecalis assessed as percent susceptible isolate by broth microdilution method
[26] = test system: Enterococcus faecalis; test: Antimicrobial activity against Vancomycin-nonsusceptible Enterococcus faecalis assessed as percent susceptible isolate by broth microdilution method
[27] = test system: Enterococcus faecium; test: Antimicrobial activity against Vancomycin-susceptible Enterococcus faecium assessed as percent susceptible isolate by broth microdilution method
[28] = test system: Enterococcus faecium; test: Antimicrobial activity against Vancomycin-nonsusceptible Enterococcus faecium assessed as percent susceptible isolate by broth microdilution method
[29] = test system: Enterococcus faecalis; test: Antimicrobial activity against Vancomycin-susceptible Enterococcus faecalis assessed as percent resistant isolates by broth microdilution method

C[C@H]1COc2c(N3CCN(C)CC3)c(F)cc3c(=O)c(C(=O)O)cn1c23.C[C@H]1COc2c(N3CCN(C)CC3)c(F)cc3c(=O)c(C(=O)O)cn1c23.O [LEVOFLOXACIN]
Activity [1]: 8.2% | Activity [2]: 3.6% | Activity [3]: 6.7% | Activity [4]: 80.1% | MIC [5]: ≤ 0.5 µg/mL | MIC50 [5]: ≤ 0.5 µg/mL | MIC90 [5]: ≤ 0.5 µg/mL | MIC50 [6]: > 4 µg/mL | MIC90 [6]: > 4 µg/mL | MIC [7]: ≤ 0.5 µg/mL | MIC50 [7]: ≤ 0.5 µg/mL | MIC90 [7]: 4 µg/mL | MIC50 [8]: 4 µg/mL | MIC90 [8]: > 4 µg/mL | MIC [9]: 0.5 µg/mL | MIC50 [9]: 0.5 µg/mL | MIC90 [9]: 1 µg/mL | MIC50 [10]: 1 µg/mL | MIC90 [10]: 2 µg/mL | Activity [11]: 92.8% | Activity [12]: 18.3% | Activity [13]: 87.5% | Activity [14]: 31.8% | Activity [15]: 98.6% | Activity [16]: 95.7% | Activity [17]: 11.1% | Activity [18]: 61.4%

CC[C@H]1OC(=O)[C@H](C)[C@@H](O[C@H]2C[C@@](C)(OC)[C@@H](O)[C@H](C)O2)[C@H](C)[C@@H](O[C@@H]2O[C@H](C)C[C@H](N(C)C)[C@H]2O)[C@](C)(O)C[C@@H](C)C(=O)[C@H](C)[C@@H](O)[C@]1(C)O [ERYTHROMYCIN]
Activity [2]: 41.7% | Activity [3]: 20.7% | Activity [4]: 88.8% | MIC [5]: ≤ 0.25 µg/mL | MIC50 [5]: ≤ 0.25 µg/mL | MIC90 [5]: > 2 µg/mL | MIC50 [6]: > 2 µg/mL | MIC [7]: ≤ 0.25 µg/mL | MIC50 [7]: ≤ 0.25 µg/mL | MIC90 [7]: > 2 µg/mL | MIC50 [8]: > 2 µg/mL | MIC [9]: 0.25 µg/mL (≈ 0.341 µM) | MIC50 [9]: 0.25 µg/mL (≈ 0.341 µM) | MIC90 [9]: 2 µg/mL (≈ 2.73 µM) | MIC [10]: 0.25 µg/mL (≈ 0.341 µM) | MIC50 [10]: 0.25 µg/mL (≈ 0.341 µM) | MIC90 [10]: 2 µg/mL (≈ 2.73 µM) | Activity [11]: 78.7% | Activity [12]: 10.9% | Activity [13]: 66% | Activity [14]: 24.1% | Activity [15]: 79.6% | Activity [16]: 56% | Activity [17]: 33.6% | Activity [18]: 75.4%

O=C(O)c1cn(C2CC2)c2cc(N3CCNCC3)c(F)cc2c1=O [CIPROFLOXACIN]
Activity [19]: 96.3% | Activity [20]: 83.7% | MIC50 [21]: 1 µg/mL (≈ 3.02 µM) | MIC90 [21]: > 4 µg/mL | MIC50 [22]: > 4 µg/mL | MIC90 [22]: > 4 µg/mL | MIC50 [23]: > 4 µg/mL | MIC90 [23]: > 4 µg/mL | MIC50 [24]: > 4 µg/mL | MIC90 [24]: > 4 µg/mL | Activity [25]: 62.2% | Activity [26]: 3.7% | Activity [27]: 8.1% | Activity [28]: 0.7% | Activity [29]: 33.6%

CN[C@H]1C(=O)N[C@@H]2Cc3ccc(cc3)Oc3cc4cc(c3O[C@@H]3O[C@H](C(=O)O)[C@@H](O)[C@H](O)[C@H]3NC(=O)CCCCCCCCC(C)C)Oc3ccc(cc3Cl)[C@@H](O)[C@@H]3NC(=O)[C@H](NC(=O)[C@@H]4NC(=O)[C@@H](NC2=O)c2cc(cc(O)c2Cl)Oc2cc1ccc2O)c1ccc(O)c(c1)-c1c(O[C@H]2O[C@H](CO)[C@@H](O)[C@H](O)[C@@H]2O)cc(O)cc1[C@@H](C(=O)NCCCN(C)C)NC3=O [DALBAVANCIN]
MIC50 [5]: 0.06 µg/mL (≈ 0.033 µM) | MIC90 [5]: 0.06 µg/mL (≈ 0.033 µM) | MIC50 [6]: 0.06 µg/mL (≈ 0.033 µM) | MIC90 [6]: 0.06 µg/mL (≈ 0.033 µM) | MIC [7]: ≤ 0.03 µg/mL | MIC50 [7]: ≤ 0.03 µg/mL | MIC90 [7]: 0.06 µg/mL (≈ 0.033 µM) | MIC90 [8]: 0.12 µg/mL (≈ 0.0661 µM) | MIC [21]: ≤ 0.03 µg/mL | MIC50 [21]: ≤ 0.03 µg/mL | MIC90 [21]: 0.06 µg/mL (≈ 0.033 µM) | MIC50 [22]: > 4 µg/mL | MIC90 [22]: > 4 µg/mL | MIC50 [23]: 0.06 µg/mL (≈ 0.033 µM) | MIC90 [23]: 0.12 µg/mL (≈ 0.0661 µM) | MIC50 [24]: > 4 µg/mL | MIC90 [24]: > 4 µg/mL | MIC [9]: 0.03 µg/mL (≈ 0.0165 µM) | MIC50 [9]: 0.03 µg/mL (≈ 0.0165 µM) | MIC90 [9]: 0.03 µg/mL (≈ 0.0165 µM) | MIC [10]: 0.03 µg/mL (≈ 0.0165 µM) | MIC50 [10]: 0.03 µg/mL (≈ 0.0165 µM) | MIC90 [10]: 0.03 µg/mL (≈ 0.0165 µM) | Activity [11]: 100% | Activity [13]: 99.8% | Activity [14]: 99.2% | Activity [25]: >99.9% | Activity [26]: 27.8% | Activity [27]: 99.6% | Activity [28]: 11.4% | Activity [15]: 100% | Activity [16]: 100%

CCC[C@@H]1C[C@@H](C(=O)N[C@@H]([C@H]2O[C@H](SC)[C@H](O)[C@@H](O)[C@H]2O)[C@H](C)Cl)N(C)C1 [CLINDAMYCIN]
Activity [1]: 19.9% | Activity [2]: 9.5% | Activity [3]: 4% | Activity [4]: 52.1% | MIC [5]: ≤ 0.25 µg/mL | MIC50 [5]: ≤ 0.25 µg/mL | MIC90 [5]: ≤ 0.25 µg/mL | MIC50 [6]: > 2 µg/mL | MIC90 [6]: > 2 µg/mL | MIC [7]: ≤ 0.25 µg/mL | MIC50 [7]: ≤ 0.25 µg/mL | MIC90 [7]: ≤ 0.25 µg/mL | MIC90 [8]: > 2 µg/mL | MIC [9]: 0.25 µg/mL (≈ 0.588 µM) | MIC50 [9]: 0.25 µg/mL (≈ 0.588 µM) | MIC90 [9]: 0.25 µg/mL (≈ 0.588 µM) | MIC [10]: 0.25 µg/mL (≈ 0.588 µM) | MIC50 [10]: 0.25 µg/mL (≈ 0.588 µM) | MIC90 [10]: 0.5 µg/mL (≈ 1.18 µM) | Activity [11]: 95.8% | Activity [12]: 47.8% | Activity [13]: 93.5% | Activity [14]: 57% | Activity [15]: 91.4% | Activity [16]: 89.8% | Activity [17]: 5.7% | Activity [18]: 41.7%

CO/N=C(\C(=O)N[C@@H]1C(=O)N2C(C(=O)O)=C(CSc3nc(=O)c(O)nn3C)CS[C@H]12)c1csc(N)n1 [CEFTRIAXONE]
Activity [2]: 4.3% | MIC [9]: 0.25 µg/mL (≈ 0.451 µM) | MIC50 [9]: 0.25 µg/mL (≈ 0.451 µM) | MIC90 [9]: 0.25 µg/mL (≈ 0.451 µM) | MIC [10]: 0.25 µg/mL (≈ 0.451 µM) | MIC50 [10]: 0.25 µg/mL (≈ 0.451 µM) | MIC90 [10]: 1 µg/mL (≈ 1.8 µM) | Activity [15]: 99.9% | Activity [16]: 92.5%
